{
  "source": "patent US7772260B2",
  "about": "“Imidazo[2,1-b]-1,3,4-thiadiazole sulfonamides” (Aegera Therapeutics Inc., priority 2001, dated 2010)",
  "key": {"[1]": {"tested_on": "human ovarian carcinoma cells (OV2008)", "assay": "Co-treatment of OV2008 cell line with Taxol and compound 1", "assay_type": "cell-based", "conditions": "Taxol™ (50 nM) + compound at 5, 10, 20 uM; Taxol™ and/or cisplatin", "procedure": "(§1) H460 and OV2008 cells were plated and incubated for 48 hours. Compound 1 and/or compound 1 and Taxol™ were added. Viability was determined after 24 hours, staining with MTT (Promega).\n(§2) FIG. 3 illustrates the co-treatment of H460 and OV 2008 cell lines with Taxol™ and compound 1. H460 lung carcinoma and OV2008 ovarian carcinoma cells were treated with Taxol™ (50 nM) and/or Taxol™ (50 nM)+compound 1 (noted as AEG 03482) at levels of 5, 10, and 20 uM."}, "SCG neurons [2]": {"tested_on": "SCG neurons", "assay": "cells", "conditions": "Rattus norvegicus, Neuron, 48 h, read-out: IC50, protection of SCG neurons against cisplatin killing"}, "[3]": {"assay": "Acute toxicity studies with compound 1 alone", "assay_type": "in vivo", "conditions": "compound alone, 1, 5, and 10 mg/kg for 3 weeks", "procedure": "Male Spraugue Dawley rats were treated with 50% HPDC vehicle (veh/veh), compound I dissolved in 50% HPDC at 1, 5, or 10 mg/kg (veh/1, veh/5, veh/10, respectively), or Taxol™ (9 mg/kg)+compound 1 dissolved in 50% HPDC at 1, 5, and 10 mg/kg (Tax/1, Tax/5, Tax/10) according to the dosing regime described in Example 160. Weight measurements were made ever other day."}, "[4]": {"tested_on": "retinal ganglion (RG) neurons", "assay": "Optical stroke model", "assay_type": "in vivo, rat", "source_text": "Various diseases which result in loss of vision are related to increased inter-ocular pressure and ocular stroke or ischemia. Loss of the retinal ganglion (RG) occur during ischemic insult and in diseases such as diabetes and glaucoma. A model of inter-ocular ischemia involves an invasive increase in ocular pressure which results in the collapse of the central retinal artery. Retinal ischemia is confirmed by whitening of the iris and loss of red reflex. The inter-ocular pressure is normalized after 30 minutes. This procedure is performed on the right eye and the left eye serves as a control. Compound was given either by intra-vitrial injection or via SC injections at 10 mg/kg (see Example 162).\nThe right eye of each rat was dilated fully using 1% tropacamide and 2% pheylephrine hydrochloride (Alcon Canada). A single drop of 0.5% proparacaine (Alcon) was used as a topical anesthetic. The anterior chamber of the right eye was cannulated with a 30-gauge needle connected to a saline reservoir and a manometer to monitor intraocular pressure. Intraocular pressure was raised to 110 mm Hg by raising the saline reservoir for 60 minutes. This increase in pressure collapses the central retinal artery. […] Optical function after 24 hrs, 28 hrs and 7 days was assessed using ERG measurements and histological staining of the RG layer."}, "SCG neurons [5]": {"tested_on": "SCG neurons", "assay": "cells", "assay_type": "cell-based, Sprague Dawley rats", "conditions": "for IC50: Rattus norvegicus, Neuron"}, "CA II": {"target": "CA II (Homo sapiens, UniProt P00918)", "assay": "CA II inhibition", "assay_type": "biochemical", "conditions": "read-out: CAII(50)", "procedure": "CA II inhabition was measured using the protocol described by Pocker, Y.'Stone, J. Biochemistry 1967, 6, 668."}, "[6]": {"tested_on": "human lung carcinoma cells (H460)", "assay": "Co-treatment of H460 cell line with Taxol and compound 1", "assay_type": "cell-based", "conditions": "Taxol™ (50 nM) + compound at 5, 10, 20 uM; Taxol™ and/or cisplatin", "procedure": "as §1, §2"}, "SCG neurons [7]": {"tested_on": "SCG neurons", "assay": "In vitro protection of SCG neurons from vincristine killing", "assay_type": "cell-based, Sprague Dawley rats", "conditions": "Rattus norvegicus, Neuron; vincristine (50 ng/mL), 48 hours, MTS; ±1 μM; read-out: IC50, protection of SCG neurons against Vincristine killing", "source_text": "Similarly, vincristine and vinblastine are commonly used anti-tumour agents whose mode of action involve tubulin binding."}, "sciatic nerve": {"tested_on": "sciatic nerve", "assay": "Sciatic nerve crush injury model", "assay_type": "in vivo, Sprague Dawley rats", "source_text": "The sciatic nerve crush model is a representative model of axonal repair and regeneration. The sciatic nerve is physically crushed with forceps at the mid-thigh; only the right leg is injured, the left leg serving as a control. The axons die from the crush point to their point of innervation. Functional loss of the axons is rapidly observed as the animals drag their right leg and the toes of the right leg no longer spread. Recovery is observed in approximately 28 days as the animals regain use of their right leg. More quantitative measurements of recovery include toe spread measurements between the digits 1 and 5 and digits 2 and 4, gait analysis and electrical conductivity from the toes to the injury site (see Example 161). Male Sprague Dawley rats were anaesthetized (halothane and buprenorphine) and the right hind leg was blunt dissected to expose the sciatic nerve at mid-thigh. The nerve was crushed twice for a total of 30 seconds using No.7 Dumont jeweller's forceps. The incision is sutured and the animals are allowed to recover for 28 days. Functional recovery was measured by gait, nerve conductance and toe spread measurements between digits 1 and 5 and digits 2 and 4."}, "Akt": {"tested_on": "Akt", "assay": "Akt activity in PC12 cells and SCGs", "assay_type": "cell-based", "source_text": "(§3) Additionally, the Erks protect cultured neurons from a number of insults including neurotrophin withdrawal (Bonni, A., et al., Science, 1999, 286, 1358-1362). […] Compound 1, therefore, protects neurons by activating a subset of NGF-stimulated signaling pathways."}, "Erk": {"tested_on": "Erk", "assay": "Erk activity in PC12 cells and sympathetic neurons", "assay_type": "cell-based", "conditions": "PC12 cells and primary cultures of sympathetic neurons", "source_text": "as §3"}},
  "note": "Entries after “also recorded” stand apart in the source; their conditions may differ.",
  "data": [
    {"smiles": "NS(=O)(=O)c1nn2cc(-c3ccccc3)nc2s1", "note": "[Compound 1, 6-Phenylimidazo[2,1-b]-1,3,4-thiadiazole-2-sulfonamide]", "values": [
      {"measurement": "protection of OV2008 cells from Taxol™ induced apoptosis", "setting": "[1]", "result": "no protection; also recorded: did not protect"},
      {"measurement": "IC50", "setting": "SCG neurons [2]", "result": 5, "unit": "µM"},
      {"measurement": "acute signs of toxicity", "setting": "[3]", "result": "No acute signs of toxicity"},
      {"measurement": "protection of RG population / ERG conductance after ocular stroke", "setting": "[4]; given post stroke, intravitreally then daily injections for 1 week", "result": "protects the RG population allowing for normal conductance"},
      {"measurement": "histology of the RG layer", "setting": "[4]; intra-vitrial injection or SC", "result": "healthy RG layers"},
      {"measurement": "protection against Taxol™ induced killing", "setting": "SCG neurons [5]; 10 uM, Taxol™ 50 ng/mL, MTS", "result": 100, "unit": "%"},
      {"measurement": "IC50", "setting": "SCG neurons [5]; Taxol™ (50 ng/mL), viability 48 hours later, MTS, read-out: IC(50), protection of SCG neurons from Taxol killing", "result": 7, "unit": "µM"},
      {"measurement": "IC50", "setting": "SCG neurons [5]; read-out: IC(50) against Taxol killing of SCGs", "result": 7, "unit": "µM"},
      {"measurement": "IC50", "setting": "CA II", "result": 0.25, "unit": "µM"},
      {"measurement": "protection of H460 cells from Taxol™ induced apoptosis", "setting": "[6]", "result": "no protection; also recorded: did not protect"},
      {"measurement": "IC50", "setting": "SCG neurons [7]", "result": 10, "unit": "µM"},
      {"measurement": "functional recovery after sciatic nerve crush", "setting": "sciatic nerve; 1 and 10 mg/kg", "result": "improved recovery"},
      {"measurement": "recovery in toe spread area (inner toe spread)", "setting": "sciatic nerve; versus vehicle control", "result": "induced increased recovery"},
      {"measurement": "activity of Akt", "setting": "Akt", "result": "remained unchanged"},
      {"measurement": "Erk activity", "setting": "Erk", "result": "dramatic increase"}
    ]}
  ]
}
